The source of these data is paper PMC5896778 (Developmental cell, 2018).

Assay [1] relates to CDK activity and EB3 abundance in HCMV AD169-infected NHDFs. The settings on record: 3 µM.
The test system of assay [2] is MT formation at Golgi fragments in HCMV-infected NHDFs. As to the kind of experiment: Nocodazole washout assay, MT nucleation. The format is cell-based, human. To be noted: 10µM nocodazole for 8h, mock or AD169-infected NHDFs, 3d.

`Nc1nc(Nc2ccc(S(N)(=O)=O)cc2)nn1C(=O)c1c(F)cccc1F` [JNJ-7706621]: the “effect on IE2 expression” value in assay [1] (AD169 MOI 3, WB) was “modestly affected IE2 expression”. In addition, the “CDK substrate phosphorylation and increases in EB3 abundance by 3d.p.i.” value in assay [1] (daily inhibitor replenishment, AD169 MOI 3, 3d.p.i.) is reported as “insensitive”. Also, the “effect on HCMV-induced CDK activation (pan-CDK1 substrate antibody)” value in assay [1] (replaced every 24h, AD169 MOI 3, WB) is recorded as “suppressed HCMV-induced CDK activation”. For the same molecule, the “effect on HCMV-induced increases in EB3” value in assay [1] (replaced every 24h, AD169 MOI 3, WB, 1 and 2 d.p.i.) is “prevented increases in EB3 at 1 and 2 d.p.i”.

Turning to `COC(=O)Nc1nc2ccc(C(=O)c3cccs3)cc2[nH]1` [nocodazole], the “effect on MTs, Golgi and AC structures” value in assay [2] is “depolymerized MTs and dispersed Golgi and AC structures”.
